# How the values were obtained:
# [1] = molecular target: T1, Adenosine receptor A1 (Homo sapiens, UniProt P30542); experiment: Displacement of [3H]DPCPX from human recombinant adenosine A1 receptor expressed in HEK293T cells by scintillation counting; assay type: cell-based, HEK-293T
# T1 sequence (P30542 whole entry): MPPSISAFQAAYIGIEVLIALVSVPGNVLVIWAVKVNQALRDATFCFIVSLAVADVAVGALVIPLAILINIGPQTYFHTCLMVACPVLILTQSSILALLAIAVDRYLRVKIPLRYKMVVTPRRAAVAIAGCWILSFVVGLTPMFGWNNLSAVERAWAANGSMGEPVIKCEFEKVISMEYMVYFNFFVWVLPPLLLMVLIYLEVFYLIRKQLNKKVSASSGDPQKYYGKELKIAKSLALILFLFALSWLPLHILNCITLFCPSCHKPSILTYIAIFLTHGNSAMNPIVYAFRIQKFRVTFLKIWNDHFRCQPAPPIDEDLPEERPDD
# [2] = molecular target: Adenosine receptor A2a (Homo sapiens, UniProt P29274); experiment: biochemical
# Chain of Adenosine receptor A2a (P29274 whole entry): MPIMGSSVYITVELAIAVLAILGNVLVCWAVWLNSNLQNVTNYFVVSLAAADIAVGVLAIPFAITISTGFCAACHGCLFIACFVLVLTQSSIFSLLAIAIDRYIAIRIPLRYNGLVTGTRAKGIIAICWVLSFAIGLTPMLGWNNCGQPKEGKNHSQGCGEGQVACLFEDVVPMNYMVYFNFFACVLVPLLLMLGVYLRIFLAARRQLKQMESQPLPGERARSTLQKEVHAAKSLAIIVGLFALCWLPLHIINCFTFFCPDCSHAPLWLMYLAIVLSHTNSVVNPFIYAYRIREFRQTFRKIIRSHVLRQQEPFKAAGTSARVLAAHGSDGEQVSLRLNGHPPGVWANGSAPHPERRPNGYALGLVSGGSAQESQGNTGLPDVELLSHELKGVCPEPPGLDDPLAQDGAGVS
# Description: Displacement of [3H]CGS21680 from human recombinant adenosine A2A receptor expressed in HEK293T cells by scintillation counting
# [3] = molecular target: T2, Adenosine receptor A3 (Homo sapiens, UniProt P0DMS8); experiment: Displacement of [3H]NECA from human recombinant adenosine A3 receptor expressed in HEK293T cells by scintillation counting; assay type: cell-based, HEK-293T
# T2 sequence (P0DMS8 whole entry): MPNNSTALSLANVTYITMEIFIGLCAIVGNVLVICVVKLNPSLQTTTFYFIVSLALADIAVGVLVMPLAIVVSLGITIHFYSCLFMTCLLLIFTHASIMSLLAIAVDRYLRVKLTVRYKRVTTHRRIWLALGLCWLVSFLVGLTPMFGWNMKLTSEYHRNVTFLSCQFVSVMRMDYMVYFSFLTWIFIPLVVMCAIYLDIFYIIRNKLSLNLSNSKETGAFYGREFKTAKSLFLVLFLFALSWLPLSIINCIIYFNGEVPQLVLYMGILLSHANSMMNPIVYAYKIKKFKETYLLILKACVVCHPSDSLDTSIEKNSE
# [4] = molecular target: T3, Adenosine receptor A3 (Homo sapiens) (UniProt P0DMS8); experiment: Inhibition of [3H]NECA binding to human recombinant adenosine A3 receptor expressed in HEK293T cells at 100 uM by scintillation counting; assay type: cell-based; conditions: HEK-293T
# T3 sequence (whole entry): T2 sequence (P0DMS8 whole entry)
Ki [1],Ki [2],Ki [3],inhibition [4],Structure (SMILES)
346 nM,164 nM,3.82 nM,–,CCCOc1cncc2[nH]c3c(=O)n(CCC)c(=O)n(CCC)c3c12
1410 nM,3630 nM,290 nM,–,CCCn1c(=O)c2[nH]c3cnccc3c2n(CCC)c1=O
379 nM,893 nM,13.9 nM,–,Cn1c(=O)c2[nH]c3cccnc3c2n(C)c1=O
921 nM,1470 nM,209 nM,–,CCCOc1cnc2c(c1)[nH]c1c(=O)n(CCC)c(=O)n(CCC)c12
132 nM,570 nM,16.8 nM,–,CCCn1c(=O)c2[nH]c3cccnc3c2n(CCC)c1=O
–,–,–,9%,Cn1c(=O)c2c(ncn2C)n(C)c1=O
11700 nM,10100 nM,526 nM,–,Cn1c(=O)c2[nH]c3cnccc3c2n(C)c1=O

# Source: ChEMBL document CHEMBL1152960 (Bioorg Med Chem, 2009)
